Values after ≈ are worked out from the molar mass of the structure shown.
How the values were obtained:
Anas platyrhynchos = conditions: reproductive
Apis mellifera = conditions: acute, mortality
Bibionidae = conditions: chronic/long-term; duration: 28 days
Colinus virginianus = conditions: acute; oral; mortality
Daphnia magna = conditions: chronic/long-term; duration: 21 days
Folsomia candida = conditions: chronic/long-term; duration: 28 days; reproduction
Oncorhynchus mykiss = conditions: acute; duration: 96 hours; mortality
Tagia sp. = conditions: chronic/long-term; duration: 56 days; reproduction
Aphidius rhopalosiphi = test: LR50; higher = less toxic; conditions: acute; mortality

**Q.** With `CCOC(=O)Nc1cccc(OC(=O)Nc2ccccc2)c1` [Desmedipham] as the molecule, how does the NOAEL (Anas platyrhynchos) read?
**A.** 11 mg/kg-day

**Q.** And the LD50 (Apis mellifera; dermal)?
**A.** > 100 µg/piece

**Q.** What about the LD50 (Apis mellifera; oral, unspecified) of the same molecule?
**A.** > 101 µg/piece

**Q.** And the NOEC (Bibionidae)?
**A.** 0.14 mg/L

**Q.** And the LD50 (Colinus virginianus)?
**A.** > 2000 mg/kg-day

**Q.** What about the NOEC (Daphnia magna) of the same molecule?
**A.** 0.02 mg/L

**Q.** And the NOEC (Folsomia candida)?
**A.** 158 mg/kg

**Q.** What about the LC50 (Oncorhynchus mykiss) of the same molecule?
**A.** 1.41 µg/mL (≈ 4.7 µM)

**Q.** What about the LD50 (Rattus norvegicus; acute, oral, mortality) of the same molecule?
**A.** > 5000 mg/kg-day

**Q.** What about the NOAEL (Rattus norvegicus; chronic, duration: 2 years, hematological) of the same molecule?
**A.** 3.2 mg/kg-day

**Q.** And the NOAEL (Rattus norvegicus; reproduction developmental, M, reproduction)?
**A.** 4 mg/kg-day

**Q.** And the NOAEL (Rattus norvegicus; subchronic, duration: 90 days, oral, hematological)?
**A.** 5.2 mg/kg-day

**Q.** And the NOEC (Tagia sp.)?
**A.** 64 mg/kg

**Q.** What about the LR50 (Aphidius rhopalosiphi) of the same molecule?
**A.** 63.8 g/ha
